The values below come from publication PMC5378332, “Molecular actions of two synthetic brassinosteroids, iso-carbaBL and 6-deoxoBL, which cause altered physiological activities between Arabidopsis and rice” (PLoS ONE, 2017).

One test concerns the target T1, rice BRI1 LRR17-ID-LRR18 (Oryza sativa, UniProt Q942F3).
T1 construct: extracellular LRR17-island domain-LRR18 fragment, amino acids 484-600; N-terminal GST fusion from pGEX6P-1, GST kept; glutathione-Sepharose purified
T1 sequence (Q942F3 484-600): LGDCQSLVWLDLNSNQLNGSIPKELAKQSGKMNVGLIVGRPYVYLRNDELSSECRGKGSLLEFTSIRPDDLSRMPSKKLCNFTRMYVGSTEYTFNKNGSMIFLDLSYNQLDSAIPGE
Put plainly: competition with BPCS photoaffinity crosslinking, anti-biotin immunoblot. To be noted: dose-dependent competition; GST-normalised. The class given is binding. For orientation: A western blot detects proteins with antibodies after separation by electrophoresis.

For test [1], the target named is T2, Arabidopsis BRI1 LRR21-ID-LRR22 (Arabidopsis thaliana, UniProt O22476).
T2 construct: extracellular LRR21-island domain-LRR22 fragment, amino acids 556-673; N-terminal GST fusion from pGEX6P-1, GST kept; glutathione-Sepharose purified
T2 sequence (O22476 556-673): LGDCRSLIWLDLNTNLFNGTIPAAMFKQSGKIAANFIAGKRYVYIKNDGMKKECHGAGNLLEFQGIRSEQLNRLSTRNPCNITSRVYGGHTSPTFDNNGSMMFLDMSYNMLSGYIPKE
The test is described as above. The class given is binding. To be noted: dose-dependent competition; GST-normalised.

Take `CC(C)[C@H](C)[C@@H](O)[C@H](O)[C@@H](C)[C@H]1CC[C@H]2[C@@H]3COC(=O)[C@H]4C[C@H](O)[C@H](O)C[C@]4(C)[C@H]3CC[C@]12C` [BL, (22R,23R,24S)-2α,3α,22,23-tetrahydroxy-24-methyl-B-homo7-oxa-5α-cholestan-6-one]: the “competition with BPCS photoaffinity crosslinking, anti-biotin immunoblot” value at rice BRI1 LRR17-ID-LRR18 was “BL, the positive control, inhibited the binding of BPCS to both Arabidopsis and rice BRI1”.

For the compound `CC(C)[C@H](C)[C@@H](O)[C@H](O)[C@@H](C)[C@H]1CC[C@H]2[C@@H]3CC(=O)C[C@H]4C[C@@H](O)[C@@H](O)C[C@]4(C)[C@H]3CC[C@]12C` [iso-carbaBL], the “competition with BPCS photoaffinity crosslinking, anti-biotin immunoblot” value is “decreased the binding of BPCS not only to Arabidopsis BRI1, but also to rice BRI1” in test [1] and “decreased the binding of BPCS not only to Arabidopsis BRI1, but also to rice BRI1” on rice BRI1 LRR17-ID-LRR18.
